Measurements published in ChEMBL document CHEMBL1201862, “PubChem BioAssay data set” (2004).
Where “and” joins values, the source holds several entries; their conditions need not be identical. Equal values may be shown once.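 In this assay, cells in 96-well plates receive the compound at five concentrations for 48 hours. Endpoints are linearly interpolated between the surrounding concentrations. GI50: concentration for 50% inhibition of growth.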 Calls of active or inactive are those of the source. Cut-off read from the data, not from the text of the source: active = GI50 up to about 1.1 µM and inactive = higher.

Experiments:
Test in all cases: growth of human tumour cells (NCI), 48 h
SK-OV-3 = system: SK-OV-3
SW-620 = system: SW-620
HCC 2998 = system: HCC 2998
MDA-MB-231 = system: MDA-MB-231
KM12 = system: KM12
UACC-257 = system: UACC-257
OVCAR-4 = system: OVCAR-4
NCI-H226 = system: NCI-H226
UO-31 = system: UO-31
CCRF-CEM = system: CCRF-CEM
UACC-62 = system: UACC-62
HOP-62 = system: HOP-62
SF-295 = system: SF-295
SK-MEL-28 = system: SK-MEL-28
A498 = system: A498
SNB-75 = system: SNB-75
CAKI-1 = system: CAKI-1
LOX IMVI = system: LOX IMVI
Hs-578T = system: Hs-578T
SR = system: SR

Row | Structure (SMILES) | GI50 (SK-OV-3) | GI50 (SW-620) | GI50 (HCC 2998) | GI50 (MDA-MB-231) | GI50 (KM12) | GI50 (UACC-257) | GI50 (OVCAR-4) | GI50 (NCI-H226) | GI50 (UO-31) | GI50 (CCRF-CEM) | GI50 (UACC-62) | GI50 (HOP-62) | GI50 (SF-295) | GI50 (SK-MEL-28) | GI50 (A498) | GI50 (SNB-75) | GI50 (CAKI-1) | GI50 (LOX IMVI) | GI50 (Hs-578T) | GI50 (SR)
1 | CC(C)(C)OC/C=C(\Br)CO | > 100 µM (inactive) | > 100 µM (inactive) | > 100 µM (inactive) | > 100 µM (inactive) | 41.6 µM (inactive) | > 100 µM (inactive) | > 100 µM (inactive) | > 100 µM (inactive) | > 100 µM (inactive) | > 100 µM (inactive) | > 100 µM (inactive) | > 100 µM (inactive) | > 100 µM (inactive) | > 100 µM (inactive) | > 100 µM (inactive) | > 100 µM (inactive) | > 100 µM (inactive) | – | – | –
2 | Cc1cccc2c(N)c3cccc(C(=O)NCC[N+](C)(C)[O-])c3nc12 | 14 µM (inactive) | 5.53 µM (inactive) | 10.2 µM (inactive) | 20.4 µM (inactive) | > 100 µM (inactive) | 20.6 µM (inactive) | 10.3 µM (inactive) | 3.05 µM (inactive) | 21.7 µM (inactive) | 2.49 µM (inactive) | 8.99 µM (inactive) | 3.61 µM (inactive) | 6.76 µM (inactive) | 17.3 µM (inactive) | – | 1.32 µM (inactive) | 3.42 µM (inactive) | 10.4 µM (inactive) | 5.37 µM (inactive) | –
3 | CC1(C)[C@@H]2C[C@H]1c1cnc(-c3ccccn3)cc1C2CCCCC[C@@H]1c2cc(-c3ccccn3)ncc2[C@@H]2C[C@H]1C2(C)C (stereo partly specified) | – | 0.83 µM (active) | 7.1 µM (inactive) | 8.15 µM (inactive) | 1.48 µM (inactive) | 0.655 µM (active) | 0.384 µM (active) | 1.23 µM (inactive) | 0.853 µM (active) | 0.502 µM (active) | 0.946 µM (active) | 1.42 µM (inactive) | 0.871 µM (active) | 2.29 µM (inactive) | 3.5 µM (inactive) | 0.74 µM (active) | 0.628 µM (active) | 0.625 µM (active) | – | 0.653 µM (active)
4 | CCOC(=O)c1cc(NC(=O)N(CCC#N)CCN(C(=O)N[C@@H](Cc2ccccc2)C(=O)N[C@@H](CC(C)C)C(=O)NC)c2ccccc2)ccc1OC | 70 µM (inactive) | > 10 µM (inactive) | 35.1 µM (inactive) | 74.5 µM (inactive) | > 100 µM (inactive) | 24 µM (inactive) | 44 µM (inactive) | 35.5 µM (inactive) | 34.4 µM (inactive) | 89.9 µM (inactive) | 4.76 µM (inactive) | 41.8 µM (inactive) | 34.6 µM (inactive) | 28.9 µM (inactive) | 63.7 µM (inactive) | 45 µM (inactive) | > 100 µM (inactive) | 18.2 µM (inactive) | 42.2 µM (inactive) | –
5 | COc1cc(OC)cc(-c2nc(O)c3ccccc3n2)c1 | 22.8 µM (inactive) | > 100 µM (inactive) | > 100 µM (inactive) | 86.1 µM (inactive) | > 100 µM (inactive) | > 100 µM (inactive) | > 100 µM (inactive) | > 100 µM (inactive) | 71.9 µM (inactive) | > 100 µM (inactive) | > 100 µM (inactive) | 38.9 µM (inactive) | 29 µM (inactive) | > 100 µM (inactive) | 31.1 µM (inactive) | 29.6 µM (inactive) | > 100 µM (inactive) | > 100 µM (inactive) | 38.8 µM (inactive) | –
6 | CC(C)[C@@H]1NC(=O)[C@H]2N=C(O[C@@H]2C)[C@@H]2CCCN2C(=O)[C@H](Cc2ccccc2)NC(=O)[C@@H]2CSC(=N2)[C@@H](Cc2ccccc2)NC(=O)[C@@H]2CSC1=N2 | > 50 µM (inactive) | > 50 µM (inactive) | 21.9 µM (inactive) | > 50 µM (inactive) | 25.6 µM (inactive) | > 50 µM (inactive) | 19.8 µM (inactive) | 38.5 µM (inactive) | > 50 µM (inactive) | 16.3 µM (inactive) | > 50 µM (inactive) | > 50 µM (inactive) | 34.6 µM (inactive) | > 50 µM (inactive) | – | 0.216 µM (active) | > 50 µM (inactive) | 23.7 µM (inactive) | 32.8 µM (inactive) | –
7 | COc1ccccc1/C(=N\OCCC(=O)O)c1cccs1 | > 100 µM (inactive) | > 100 µM (inactive) | > 100 µM (inactive) | > 100 µM (inactive) | > 100 µM (inactive) | > 100 µM (inactive) | > 100 µM (inactive) | > 100 µM (inactive) | > 100 µM (inactive) | > 100 µM (inactive) | > 100 µM (inactive) | > 100 µM (inactive) | > 100 µM (inactive) | > 100 µM (inactive) | > 100 µM (inactive) | > 100 µM (inactive) | > 100 µM (inactive) | > 100 µM (inactive) | 56.6 µM (inactive) | –
8 | CC(=O)c1cccc(NC(=O)C(=O)NNc2nnc(S)n2N)c1 | 20.5 µM (inactive) | 7.73 µM (inactive) | 14.1 µM (inactive) | – | 11.1 µM (inactive) | 2.75 µM (inactive) | 10.1 µM (inactive) | 12.2 µM (inactive) | 9.16 µM (inactive) | 3.48 µM (inactive) | 1.89 µM (inactive) | 12.1 µM (inactive) | 4.14 µM (inactive) | 6.89 µM (inactive) | 20.4 µM (inactive) | 7.29 µM (inactive) | 17.3 µM (inactive) | 1.64 µM (inactive) | 2 µM (inactive) | 3.61 µM (inactive)
9 | CC(=O)NC1C(CO)O[C@@H]2OC(C)(C)O[C@H]12 (stereo partly specified) | – | > 100 µM (inactive) | > 100 µM (inactive) | > 100 µM (inactive) | > 100 µM (inactive) | > 100 µM (inactive) | > 100 µM (inactive) | – | > 100 µM (inactive) | > 100 µM (inactive) | > 100 µM (inactive) | > 100 µM (inactive) | > 100 µM (inactive) | > 100 µM (inactive) | > 100 µM (inactive) | > 100 µM (inactive) | > 100 µM (inactive) | > 100 µM (inactive) | > 100 µM (inactive) | –
10 | CCCCCC(/C=C/C1CCC(=O)C1)OCOCCOC (stereo unspecified) | > 100 µM (inactive) | 29.8 µM (inactive) | 64.4 µM (inactive) | 69.8 µM (inactive) | 45.9 µM (inactive) | 26.9 µM (inactive) | 47.9 µM (inactive) | 29.1 µM (inactive) | 17.9 µM (inactive) | 35.3 µM (inactive) | 36.6 µM (inactive) | > 100 µM (inactive) | > 58.7 µM (inactive) | > 77.3 µM (inactive) | 48.2 µM (inactive) | 11.5 µM (inactive) | 31.5 µM (inactive) | 24.3 µM (inactive) | – | > 46.3 µM (inactive)
11 | COC(=O)C(=O)C(C(=O)C(=O)Nc1ccccc1C(=O)OC)c1nc2ccc(C(=O)c3ccccc3)cc2nc1O (stereo unspecified) | 60.7 µM (inactive) | 50 µM (inactive) | – | 76.4 µM (inactive) | 21.7 µM (inactive) | > 100 µM (inactive) | 24.9 µM (inactive) | > 100 µM (inactive) | 31.7 µM (inactive) | – | > 100 µM (inactive) | 55 µM (inactive) | 47.2 µM (inactive) | 90.2 µM (inactive) | 81.5 µM (inactive) | 24.2 µM (inactive) | 30.5 µM (inactive) | 87.3 µM (inactive) | 33.2 µM (inactive) | –
12 | COC(=O)[C@H](Cc1ccccc1)NC(=O)[C@H](Cc1ccccc1)NC(=O)CN1C(=O)[C@@H]2C3C=CC(C3)[C@@H]2C1=O | 16.7 µM (inactive) | 16.5 µM (inactive) and 20.9 µM (inactive) | 17.3 µM (inactive) and 16.7 µM (inactive) | 17.3 µM (inactive) and 17 µM (inactive) | 20.7 µM (inactive) and 17.1 µM (inactive) | 17.6 µM (inactive) and 16.4 µM (inactive) | 16.1 µM (inactive) and 19 µM (inactive) | 20.1 µM (inactive) and 19.1 µM (inactive) | 23.3 µM (inactive) and 15.7 µM (inactive) | – | 16.4 µM (inactive) and 16.6 µM (inactive) | 19.7 µM (inactive) and 18.7 µM (inactive) | 18.5 µM (inactive) and 19.2 µM (inactive) | 19.3 µM (inactive) and 18.1 µM (inactive) | 22.9 µM (inactive) and 16.8 µM (inactive) | 18.7 µM (inactive) and 18 µM (inactive) | 16.7 µM (inactive) and 18.6 µM (inactive) | 18.3 µM (inactive) and 17.9 µM (inactive) | 19.1 µM (inactive) and 19.5 µM (inactive) | –
13 | COc1cc2c(cc1OC)C1=Cc3cc(OC)c(OC)cc3C(C)N1C=C2 (stereo unspecified) | > 100 µM (inactive) | 84.5 µM (inactive) | > 100 µM (inactive) | – | 74.8 µM (inactive) | 33.7 µM (inactive) | – | > 100 µM (inactive) | 55.1 µM (inactive) | 27.3 µM (inactive) | 75.7 µM (inactive) | 44.2 µM (inactive) | > 100 µM (inactive) | 63.2 µM (inactive) | 82.6 µM (inactive) | 40 µM (inactive) | – | – | 74 µM (inactive) | –
14 | CC1CNC(c2ccc(COc3ccc(C4=NC(C)CN4)cc3)cc2)=N1 (stereo unspecified) | 73.1 µM (inactive) | 67.9 µM (inactive) | 46.5 µM (inactive) | 45.9 µM (inactive) | 27.4 µM (inactive) | 16.9 µM (inactive) | > 100 µM (inactive) | – | > 100 µM (inactive) | 59.6 µM (inactive) | 26.2 µM (inactive) | 32.8 µM (inactive) | 43.4 µM (inactive) | 41.8 µM (inactive) | > 100 µM (inactive) | 13.2 µM (inactive) | > 100 µM (inactive) | > 100 µM (inactive) | 22.9 µM (inactive) | –
